Experimental data taken from PMC5078025, “Necrosis-inducing peptide has the beneficial effect on killing tumor cells through neuropilin (NRP-1) targeting” (Oncotarget, 2016).
Bridge positions count the residues as written; N and C are the ends. Ends that are not written are not given here. Peptide text beside a SMILES is read from it.

How the values were obtained:
Serum AST and ALT assays = type: in vivo, mice
Experimental: To assay the activities of ALT and AST, mouse serum was prepared by centrifuging blood at 2500 × g for 15 minutes at 4°C. Enzyme activities were determined, according to the manufacturer's instructions. […]
the first injection of the peptides. […]
necrosis in tail vein upon injection.
“Slow” means not moving around in the cage.
“Normal” means normally moving around in the cage.
(§1) Abbreviation: NR; no regression, ND; not determined. […]
aminotransferase) in mice treated with TU17:MTD
Treatment Serum aminotransferase (karman units/ml)
White blood Hemoglobin Platelets Neutrophils Lymphocyts Monocytes
Treatments cells (g/dl) (×103 cell/μl) (%) (%) (%)

BALB/c mice = assay: Toxicity and movement activity after i.v. injection; conditions: for Movement Activities: BALB/c (around 20 gm) mice, i.v. single dose 75 μl of 1 mM, within 30 minutes; for toxicity by mouse movements: BALB/c mice, i.v. single dose 75 μl of 1 mM per mouse, movements within 30 minutes, observed up to one week
Experimental: To design a MTD peptide anti-cancer drug, the MTD peptide was fused to various known tumor-homing motifs through its N-terminal or C-terminal region, and a linker was introduced between these two motifs to impart flexibility and minimize steric hindrance (Figure 1A, Supplementary Table S1). The MTD peptides fused with tumor-homing motifs (hereafter designated TU:MTDs) were synthesized as linear or cyclic entities using L-amino acids (Supplementary Table S1), and were evaluated for their killing activity using CT26 cells in vitro (Supplementary Figure S1). […] Thus, BALB/c mouse movements were also evaluated within 30 minutes of the intravenous injection of a single dose of 75 μl of 1 mM TU:MTDs per mouse. […] We also searched for a TU:MTD with a potent in vivo effect by observing tumor volumes in three BALB/c mice bearing CT26 adenocarcinoma that were injected with 100 μl of 1 mM TU:MTDs per day for 2 or 3 consecutive days (Figure 1B). […] The tumor-homing motif of TU17:MTD has a “RPARPAR” sequence containing the C-end rule (CendR) element that has known to bind to neuropilin-1 (NRP-1), although the “RPARPAR” sequence is located at the N-terminus of the MTD rather than at the C-terminus. […]
1 mM) were i.v. injected into BALB/c (around 20 gm) mice at a single dose. “Slow” means not moving around in the cage.
“Normal” means normally moving around in the cage. “Toxic” means necrosis in tail vein within 2 ~ 3 days after injection.
as §1

various tumor cells = conditions: four leucine residues of MTD replaced by alanine; cited from earlier work
Source text: We reported a 10-residue long, pro-necrotic peptide derived from the mitochondrial targeting domain (MTD) located in the C-terminal region of Noxa, a BH-3 only protein of Bcl-2 family. The MTD region of Noxa is responsible not only for mitochondrial targeting of Noxa but also for mitochondrial fragmentation induced by Noxa. Two […]) in the region of MTD play a key role in mitochondrial fragmentation induced by Noxa. […] Therefore, we determined whether TU17:MTD could discriminate tumor and normal cells in vitro.

CT26 cells = assay: XTT cell viability / killing activity in CT26 cells; type: cell-based; conditions: CT26 cells, TU:MTDs 0 ~ 20 μM, 30 minutes, XTT
Experimental: Figure 1 Identification of TU17:MTD as a tumor targeting peptide (A) Schematic diagram of the fusion peptides consisting of the tumor-homing motif, linker, and mitochondrial targeting domain (MTD). (B) Tumors were generated over 2 weeks after s.c. injection of CT26 cells into the backs of BALB/c mice. When tumor volumes reached palpable size, the indicated TU:MTDs (100 μl of 1 mM TU:MTDs) or PBS were administrated i.v. twice or three times. […] Arrows indicate the points of peptide injection. P values < 0.02 (control group vs TU17:MTD at day 5, 6, 7, 8, and 9) (C) HCT116, HeLa, A549, MCF-7, PC3, and BJAB cells were treated with TU17:MTD (0 ~ 20 μM) for 30 minutes, and cell viability was monitored using XTT assays. *P < 0.05 (D) Primary splenocytes and macrophages were treated with TU17:MTD (0 ~ 20 μM) for 30 minutes, and cell viability was monitored by XTT assay. *P < 0.05 (E) CT26 cells were treated with R8:MTD, TU17:MTD, TU17-2:MTD or TU17:MTD^4A (0 ~ 40 μM) for 4 hours, and cell viability was monitored by XTT assay. Results in C to E are expressed as means ± SD (triplicates), and are representative of at least two independent experiments. P values are for experimental groups versus controls and were calculated using Dunnett's t-test. *P < 0.05.
Figure 5 Anti-NRP-1 antibody blocks TU17:MTD-induced necrosis (A) CT26 cells (2 × 10^4 cells/cm^2) were treated with TU17:MTD-FAM (500 nM) peptide or TU17^mut:MTD (500 nM) peptide. […] The viability was measured by using the XTT assay. *P < 0.05, **P < 0.01. […] The percentage of FAM-positive cells (%) were determined (n = over 200 cells). *P < 0.05, ***P < 0.001.
Cells were cultured in 96 well plates (2 × 10^5) overnight and treated with TU:MTDs. Cell viabilities were assessed using a XTT-based colorimetric assay kit, according to the manufacturer's instructions. […]
Supplementary FigureS1: Killing activity of TU:MTDs in CT26 cells. CT26 cells were treated with TU:MTDs (0 ~ 20 μM) for 30 minutes, and cell viability was monitored using XTT assays. […]

[1] = CCl4-treated mice, chemically-induced liver damage model

Compound | Movement Activities (BALB/c mice) | toxicity by mouse movements (BALB/c mice) | also measured
ClC(Cl)(Cl)Cl [CCl4] |  |  | Serum aminotransferase ALT (Serum AST and ALT assays; [1]): 558.8 ± 7.2 karman units/ml; Serum aminotransferase AST (Serum AST and ALT assays; [1]): 42.8 ± 3.7 karman units/ml; serum levels of AST and ALT (Serum AST and ALT assays; mice): substantially higher
RLLRLLRLLRGGKLLNLISKLF [TU15:MTD] | Slow | toxic | 
CC[C@H](C)[C@H](NC(=O)[C@H](CC(C)C)NC(=O)[C@H](CC(N)=O)NC(=O)[C@H](CC(C)C)NC(=O)[C@H](CC(C)C)NC(=O)[C@H](CCCCN)NC(=O)CNC(=O)CNC(=O)[C@H](CS)NC(=O)CNC(=O)[C@H](CCCNC(=N)N)NC(=O)[C@@H](NC(=O)[C@H](CCCNC(=N)N)NC(=O)[C@H](CCCCN)NC(=O)[C@H](CC(N)=O)NC(=O)CNC(=O)[C@@H](N)CS)[C@@H](C)O)C(=O)N[C@@H](CO)C(=O)N[C@@H](CCCCN)C(=O)N[C@@H](CC(C)C)C(=O)N[C@@H](Cc1ccccc1)C(=O)O [TU3:MTD] (H-CGNKRTRGCGGKLLNLISKLF-OH) | Normal | no apparent toxicities | 
KLLNLISKLF [MTD] |  |  | killing activity and mitochondrial targeting activity (various tumor cells): abolishes the killing activity and mitochondrial targeting activity
CC[C@H](C)[C@H](NC(=O)[C@H](CC(C)C)NC(=O)[C@H](CC(N)=O)NC(=O)[C@H](CC(C)C)NC(=O)[C@H](CC(C)C)NC(=O)[C@H](CCCCN)NC(=O)CNC(=O)CNC(=O)[C@H](CS)NC(=O)[C@H](CCCNC(=N)N)NC(=O)CNC(=O)[C@H](CC(N)=O)NC(=O)[C@@H](N)CS)C(=O)N[C@@H](CO)C(=O)N[C@@H](CCCCN)C(=O)N[C@@H](CC(C)C)C(=O)N[C@@H](Cc1ccccc1)C(=O)O [TU1:MTD] (H-CNGRCGGKLLNLISKLF-OH) | Slow | toxic | 
CRGDKGGKLLNLISKLF [TU21:MTD] | Slow | toxic | 
CGKRKGGKLLNLISKLF [TU19:MTD] | Normal | no apparent toxicities | 
CC[C@H](C)[C@H](NC(=O)[C@H](CC(C)C)NC(=O)[C@H](CC(N)=O)NC(=O)[C@H](CC(C)C)NC(=O)[C@H](CC(C)C)NC(=O)[C@@H](N)CCCCN)C(=O)N[C@@H](CO)C(=O)N[C@@H](CCCCN)C(=O)N[C@@H](CC(C)C)C(=O)N[C@@H](Cc1ccccc1)C(=O)N[C@@H](CS)C(=O)NCC(=O)N[C@@H](CCCNC(=N)N)C(=O)N[C@@H](CC(=O)O)C(=O)N[C@@H](CCCCN)C(=O)NCC(=O)N1CCC[C@H]1C(=O)N[C@@H](CC(=O)O)C(=O)N[C@@H](CS)C(=O)O [TU7:MTD] (H-KLLNLISKLFCGRDKGPDC-OH) |  | no apparent toxicities | 
KLLNLISKLFGGCGKRK [TU20:MTD] | Normal | no apparent toxicities | 
KLLNLISKLFGGRLLRLLRLLR [TU16:MTD] | Normal | no apparent toxicities | 
KLLNLISKLFGGRPARPAR [TU18:MTD] | Slow | toxic | 
WDLAWMFRLPVGKLLNLISKLF [TU5:MTD] | Normal | no apparent toxicities | 
KLLNLISKLFGGCRGDK [TU22:MTD] | Normal | no apparent toxicities | 
CC[C@H](C)[C@H](NC(=O)[C@H](CC(C)C)NC(=O)[C@H](CC(N)=O)NC(=O)[C@H](CC(C)C)NC(=O)[C@H](CC(C)C)NC(=O)[C@H](CCCCN)NC(=O)[C@H](CS)NC(=O)[C@H](CC(=O)O)NC(=O)[C@@H]1CCCN1C(=O)CNC(=O)[C@H](CCCCN)NC(=O)[C@H](CC(=O)O)NC(=O)[C@H](CCCNC(=N)N)NC(=O)CNC(=O)[C@@H](N)CS)C(=O)N[C@@H](CO)C(=O)N[C@@H](CCCCN)C(=O)N[C@@H](CC(C)C)C(=O)N[C@@H](Cc1ccccc1)C(=O)O [TU6:MTD] (H-CGRDKGPDCKLLNLISKLF-OH) | Normal | no apparent toxicities | 
KLLNLISKLFCRGDKGPDC (disulfide 11-19 (inferred)) [TU10:MTD] | Slow | toxic | 
CC[C@H](C)[C@H](NC(=O)[C@H](CC(C)C)NC(=O)[C@H](CC(N)=O)NC(=O)[C@H](CC(C)C)NC(=O)[C@H](CC(C)C)NC(=O)[C@H](CCCCN)NC(=O)[C@H](CS)NC(=O)[C@H](CC(=O)O)NC(=O)[C@@H]1CCCN1C(=O)CNC(=O)[C@H](CCCCN)NC(=O)[C@H](CC(=O)O)NC(=O)CNC(=O)[C@H](CCCNC(=N)N)NC(=O)[C@@H](N)CS)C(=O)N[C@@H](CO)C(=O)N[C@@H](CCCCN)C(=O)N[C@@H](CC(C)C)C(=O)N[C@@H](Cc1ccccc1)C(=O)O [TU9:MTD] (H-CRGDKGPDCKLLNLISKLF-OH) | Normal | no apparent toxicities | 
WIFPWIQLKLLNLISKLF [TU4:MTD] | Slow | toxic | 
CC[C@H](C)[C@H](NC(=O)[C@H](CC(C)C)NC(=O)[C@H](CC(N)=O)NC(=O)[C@H](CC(C)C)NC(=O)[C@H](CC(C)C)NC(=O)[C@@H](N)CCCCN)C(=O)N[C@@H](CO)C(=O)N[C@@H](CCCCN)C(=O)N[C@@H](CC(C)C)C(=O)N[C@@H](Cc1ccccc1)C(=O)N[C@@H](CS)C(=O)NCC(=O)N[C@@H](CCCNC(=N)N)C(=O)N[C@@H](CC(=O)O)C(=O)N[C@@H](CCCCN)C(=O)N[C@@H](CCCNC(=N)N)C(=O)N[C@@H](CC(C)C)C(=O)N[C@@H](Cc1ccc(O)cc1)C(=O)N[C@@H](CC(=O)O)C(=O)N[C@@H](CS)C(=O)O [TU8:MTD] (H-KLLNLISKLFCGRDKRLYDC-OH) | Dead | highly toxic | cytotoxicity to CT26 cells in vitro (CT26 cells): not cytotoxic
